Results from patent US6656509B1, “Combination of selenium-containing compounds with cytostatics” (Biosyn Arzneimittel GmbH, priority 1998, dated 2003).

How the values were obtained:
Assay in all cases: clonogenic assay (colony forming assay)
Assay type in all cases: cell-based, human
LXFS 650 = settings: LXFS 650/9; X199AM
Description: (§1) Solid human tumor xenografts growing subcutaneously in serial passages in thymus-aplastic nude mice (NMRI nu/nu strain, obtained from our own breeding facility) were removed under sterile conditions, the cells were mechanically disaggregated and subsequently incubated with an enzyme cocktail consisting of collagenase (1.2-1.8 U/ml, Worthington), DNAse (375 U/ml, Boehringer Mannheim) und hyaluronidase (29 U/ml, Boehringer Mannheim) in RPMI 1640 at 37° C. for 30 minutes. The cell mixture was passed through sieves of 200 μm and 50 μm mesh size and washed thereafter twice with PBS. The percentage of viable cells was determined in a Neubauer counting chamber using trypan blue exclusion.
(§2) The clonogenic assay was performed according to a modified two-layer soft agar assay described by Hamburger and Salmon (Hamburger and Salmon, Science, 197: 461463, 1977). The bottom layer consisted of 0.2 ml Iscoves' Modified Dulbecco's Medium with 20% fetal calf serum and 0.75% agar. 8×10^3 to 1,6×10^4 cells were added to 0.2 ml of the same culture medium together with 0.4% agar and placed in already coated 24-multiwell dishes. Test substances were applied by continuous exposure (drug overlay) in 0.2 ml medium. Every dish included six control wells containing the vehicle- and drug-treated groups in triplicate at six concentrations.
(§3) Cultures were incubated at 37° and 7% CO2 in a humidified atmosphere for 5 to 15 days (depending on the doubling time of the tumor stem cells) and monitored for colony growth using an inverted microscope. Within this period, in vitro tumor growth led to the formation of colonies with a diameter of ≧50 μm. At the time of maximum colony formation counts were performed with an automatic image analysis system (OMNICOM Fas IV, Biosys GmbH). 24 hours prior to this assay, vital colonies were stained with a sterile aqueous solution of 2-(4-iodophenyl)-3-(4-nitrophenyl)-5-phenyltetrazolium chloride (1 mg/ml, 100 μI/well). Drug effects were expressed in terms of the percentage of surviving cells, obtained by comparison of the mean number of colonies in the treated plates with the mean colony count of the untreated controls (test-versus-control-group value, T/C=colony countTreated Group*100/colony countControl Group).
(§4) Coefficient of variation in the control group ≦50%. IC50 and IC70 values were determined by plotting compound concentration versus cell survival rate. Mean IC50 and IC70 values were calculated according to the formula: [formula]
(§5) with x=specific tumor xenograft and n=total number of tumor xenografts studied. If an IC50 or IC70 value could not be determined within the examined dose range, the lowest or highest concentration studied was used for the calculation.

MAXF 401NL = settings: MAXF 401/16, X186AM
Description: as §1, §2, §3, §4, §5

OVXF 1353 = settings: OVXF 1353/17; X217AM
Description: as §1, §2, §3, §4, §5

OVXF 899 = settings: OVXF 899/33; X185AM
Description: as §1, §2, §3, §4, §5

PRXF DU145X = settings: PRXF DU145X/15, X229AM
Description: as §1, §2, §3, §4, §5

PRXF PC3M = settings: PRXF PC3M/3; X189/AM
Description: as §1, §2, §3, §4, §5

RXF 393 = settings: RXF 393/9; X194AM
Description: as §1, §2, §3, §4, §5

RXF 423 = settings: RXF 423/16; X183AM
Description: as §1, §2, §3, §4, §5

O=[Se]([O-])[O-].[Na+].[Na+] [sodium selenite]
Test/control (%) at drug concentration [μM] 1. (LXFS 650): 84%
Test/control (%) at drug concentration [μM] 10. (LXFS 650): 109%
Test/control (%) at drug concentration [μM] 100. (LXFS 650): 16%
Test/control (%) at drug concentration [μM] .001 (LXFS 650): 100%
Test/control (%) at drug concentration [μM] .01 (LXFS 650): 100%
Test/control (%) at drug concentration [μM] .1 (LXFS 650): 98%
Test/control (%) class at drug concentration [μM] 1. (LXFS 650): − (− (T/C ≧ 50%))
Test/control (%) class at drug concentration [μM] 10. (LXFS 650): − (− (T/C ≧ 50%))
Test/control (%) class at drug concentration [μM] 100. (LXFS 650): ++ (++ (10% < T/C < 30%))
Test/control (%) class at drug concentration [μM] .001 (LXFS 650): − (− (T/C ≧ 50%))
Test/control (%) class at drug concentration [μM] .01 (LXFS 650): − (− (T/C ≧ 50%))
Test/control (%) class at drug concentration [μM] .1 (LXFS 650): − (− (T/C ≧ 50%))
Test/control (%) at drug concentration [μM] 1. (MAXF 401NL): 74%
Test/control (%) at drug concentration [μM] 10. (MAXF 401NL): 66%
Test/control (%) at drug concentration [μM] 100. (MAXF 401NL): 8%
Test/control (%) at drug concentration [μM] .1 (MAXF 401NL): 53%
Test/control (%) class at drug concentration [μM] 1. (MAXF 401NL): − (− (T/C ≧ 50%))
Test/control (%) class at drug concentration [μM] 10. (MAXF 401NL): − (− (T/C ≧ 50%))
Test/control (%) class at drug concentration [μM] 100. (MAXF 401NL): +++ (+++ (T/C ≦ 10%))
Test/control (%) class at drug concentration [μM] .1 (MAXF 401NL): − (− (T/C ≧ 50%))
Test/control (%) at drug concentration [μM] .001 (MAXF 401NL; s result of a dish): 67%
Test/control (%) at drug concentration [μM] .01 (MAXF 401NL; s result of a dish): 81%
Test/control (%) class at drug concentration [μM] .001 (MAXF 401NL; s result of a dish): − (− (T/C ≧ 50%))
Test/control (%) class at drug concentration [μM] .01 (MAXF 401NL; s result of a dish): − (− (T/C ≧ 50%))
Test/control (%) at drug concentration [μM] 1. (OVXF 1353): 90%
Test/control (%) at drug concentration [μM] 10. (OVXF 1353): 100%
Test/control (%) at drug concentration [μM] 100. (OVXF 1353): 0%
Test/control (%) at drug concentration [μM] .001 (OVXF 1353): 96%
Test/control (%) at drug concentration [μM] .01 (OVXF 1353): 91%
Test/control (%) at drug concentration [μM] .1 (OVXF 1353): 100%
Test/control (%) class at drug concentration [μM] 1. (OVXF 1353): − (− (T/C ≧ 50%))
Test/control (%) class at drug concentration [μM] 10. (OVXF 1353): − (− (T/C ≧ 50%))
Test/control (%) class at drug concentration [μM] 100. (OVXF 1353): +++ (+++ (T/C ≦ 10%))
Test/control (%) class at drug concentration [μM] .001 (OVXF 1353): − (− (T/C ≧ 50%))
Test/control (%) class at drug concentration [μM] .01 (OVXF 1353): − (− (T/C ≧ 50%))
Test/control (%) class at drug concentration [μM] .1 (OVXF 1353): − (− (T/C ≧ 50%))
Test/control (%) at drug concentration [μM] 1. (OVXF 899): 70%
Test/control (%) at drug concentration [μM] 10. (OVXF 899): 73%
Test/control (%) at drug concentration [μM] 100. (OVXF 899): 1%
Test/control (%) at drug concentration [μM] .001 (OVXF 899): 80%
Test/control (%) at drug concentration [μM] .01 (OVXF 899): 79%
Test/control (%) at drug concentration [μM] .1 (OVXF 899): 66%
Test/control (%) class at drug concentration [μM] 1. (OVXF 899): − (− (T/C ≧ 50%))
Test/control (%) class at drug concentration [μM] 10. (OVXF 899): − (− (T/C ≧ 50%))
Test/control (%) class at drug concentration [μM] 100. (OVXF 899): +++ (+++ (T/C ≦ 10%))
Test/control (%) class at drug concentration [μM] .001 (OVXF 899): − (− (T/C ≧ 50%))
Test/control (%) class at drug concentration [μM] .01 (OVXF 899): − (− (T/C ≧ 50%))
Test/control (%) class at drug concentration [μM] .1 (OVXF 899): − (− (T/C ≧ 50%))
Test/control (%) at drug concentration [μM] 1. (PRXF DU145X): 91%
Test/control (%) at drug concentration [μM] 10. (PRXF DU145X): 5%
Test/control (%) at drug concentration [μM] 100. (PRXF DU145X): 0%
Test/control (%) at drug concentration [μM] .001 (PRXF DU145X): 97%
Test/control (%) at drug concentration [μM] .01 (PRXF DU145X): 96%
Test/control (%) at drug concentration [μM] .1 (PRXF DU145X): 92%
Test/control (%) class at drug concentration [μM] 1. (PRXF DU145X): − (− (T/C ≧ 50%))
Test/control (%) class at drug concentration [μM] 10. (PRXF DU145X): +++ (+++ (T/C ≦ 10%))
Test/control (%) class at drug concentration [μM] 100. (PRXF DU145X): +++ (+++ (T/C ≦ 10%))
Test/control (%) class at drug concentration [μM] .001 (PRXF DU145X): − (− (T/C ≧ 50%))
Test/control (%) class at drug concentration [μM] .01 (PRXF DU145X): − (− (T/C ≧ 50%))
Test/control (%) class at drug concentration [μM] .1 (PRXF DU145X): − (− (T/C ≧ 50%))
Test/control (%) at drug concentration [μM] 10. (PRXF DU145X; listed as selenium): < 30%
Test/control (%) at drug concentration [μM] 1. (PRXF PC3M): 85%
Test/control (%) at drug concentration [μM] 10. (PRXF PC3M): 38%
Test/control (%) at drug concentration [μM] 100. (PRXF PC3M): 1%
Test/control (%) at drug concentration [μM] .001 (PRXF PC3M): 91%
Test/control (%) at drug concentration [μM] .01 (PRXF PC3M): 91%
Test/control (%) at drug concentration [μM] .1 (PRXF PC3M): 89%
Test/control (%) class at drug concentration [μM] 1. (PRXF PC3M): − (− (T/C ≧ 50%))
Test/control (%) class at drug concentration [μM] 10. (PRXF PC3M): + (+ (30% ≦ T/C < 50%))
Test/control (%) class at drug concentration [μM] 100. (PRXF PC3M): +++ (+++ (T/C ≦ 10%))
Test/control (%) class at drug concentration [μM] .001 (PRXF PC3M): − (− (T/C ≧ 50%))
Test/control (%) class at drug concentration [μM] .01 (PRXF PC3M): − (− (T/C ≧ 50%))
Test/control (%) class at drug concentration [μM] .1 (PRXF PC3M): − (− (T/C ≧ 50%))
Test/control (%) at drug concentration [μM] 1. (RXF 393): 31%
Test/control (%) at drug concentration [μM] 10. (RXF 393): 32%
Test/control (%) at drug concentration [μM] 100. (RXF 393): 10%
Test/control (%) at drug concentration [μM] .001 (RXF 393): 62%
Test/control (%) at drug concentration [μM] .01 (RXF 393): 45%
Test/control (%) at drug concentration [μM] .1 (RXF 393): 31%
Test/control (%) class at drug concentration [μM] 1. (RXF 393): + (+ (30% ≦ T/C < 50%))
Test/control (%) class at drug concentration [μM] 10. (RXF 393): + (+ (30% ≦ T/C < 50%))
Test/control (%) class at drug concentration [μM] 100. (RXF 393): +++ (+++ (T/C ≦ 10%))
Test/control (%) class at drug concentration [μM] .001 (RXF 393): − (− (T/C ≧ 50%))
Test/control (%) class at drug concentration [μM] .01 (RXF 393): − (− (T/C ≧ 50%))
Test/control (%) class at drug concentration [μM] .1 (RXF 393): + (+ (30% ≦ T/C < 50%))
Test/control (%) at drug concentration [μM] 1. (RXF 423): 92%
Test/control (%) at drug concentration [μM] 10. (RXF 423): 110%
Test/control (%) at drug concentration [μM] 100. (RXF 423): 0%
Test/control (%) at drug concentration [μM] .001 (RXF 423): 99%
Test/control (%) at drug concentration [μM] .01 (RXF 423): 111%
Test/control (%) at drug concentration [μM] .1 (RXF 423): 120%
Test/control (%) class at drug concentration [μM] 1. (RXF 423): − (− (T/C ≧ 50%))
Test/control (%) class at drug concentration [μM] 10. (RXF 423): − (− (T/C ≧ 50%))
Test/control (%) class at drug concentration [μM] 100. (RXF 423): +++ (+++ (T/C ≦ 10%))
Test/control (%) class at drug concentration [μM] .001 (RXF 423): − (− (T/C ≧ 50%))
Test/control (%) class at drug concentration [μM] .01 (RXF 423): − (− (T/C ≧ 50%))
Test/control (%) class at drug concentration [μM] .1 (RXF 423): − (− (T/C ≧ 50%))
